Experimental findings from the NIST ThermoML archive (doi:10.1016/j.jct.2018.01.023) are described below.

Molecules are shown by their SMILES. ± gives the expanded uncertainty stated by the source.

The conditions of this data set: Crystal; for mass density: 101.33 kPa, X-ray diffraction; for Normal melting temperature: DTA.

Turning to `[F-].[Li+]` [lithium fluoride], the Normal melting temperature came out at 845 ± 10 °C. In addition, the mass density (293 K) turned out to be 2634 ± 2 kg/m3. Also, the mass density (473 K) came out at 2576 ± 12 kg/m3. For the same compound, where the note is “573 K”, the mass density came to 2554 ± 11 kg/m3. For the setting “673 K”, the mass density amounted to 2522 ± 12 kg/m3. The mass density (773 K) came out at 2493 ± 13 kg/m3. In addition, where the note is “873 K”, the mass density was 2455 ± 12 kg/m3. For the same compound, where the note is “973 K”, the mass density was 2432 ± 9 kg/m3.

Consider `[F][Ni][F]` [nickel difluoride], for which the Normal melting temperature turned out to be 1356 ± 10 °C. The mass density (293 K) worked out at 4808 ± 24 kg/m3.

For `[F-].[F-].[F-].[K+].[Ni+2]` [nickel potassium fluoride (KNiF3)], the Normal melting temperature came to 1120 ± 20 °C.

As to `[F-].[K+]` [potassium fluoride], the Normal melting temperature was determined as 856 ± 10 °C. The mass density (293 K) worked out at 2530 ± 12 kg/m3.

The mass density is mass per unit of volume.
